Reference: patent US10300107B2, “Compositions and methods for CaMKII inhibitors and uses thereof” (THE REGENTS OF THE UNIVERSITY OF COLORADO, priority 2007, dated 2019)
pIC50: −log10 of the molar value. “Also recorded” adds a separate entry of the source. Where no end group is shown, it is not given here.

Legend:
[1] = test system: CaMKII T-site mutants W237R and 1205K; assay: Kinase assay with GFP-CaMKIIα T-site mutants; type: biochemical; conditions: substrate syntide2
From the text: In another example, FIG. 3. […] FIG. 3A represents a model of CaMKII kinase domain (Rosenberg et al., 2005) with the substrate binding S-site (indicated), the T286-region binding T-site (indicated), and the regulatory region (shown as ribbon). The arrow indicates the proposed orientation of CN21a binding to the T-site, when the regulatory region is displaced after activation. […] Results are normalized to maximal kinase activity without inhibitor. Error bars show s.e.m. […] Bound CaMKII was eluted and detected by Western blot.
(§1) CaMKII activity assays. Standard CaMKII assays were done for 1 min at 30° C. previously described, with 20 nM CaMKII (subunit, not holoenzyme concentration), 50 mM PIPES pH 7.2, 0.1 mg/ml BSA, 10 mM MgCl2, 100 μM [γ-^32P] ATP (˜1 Ci/mmol), 1 mM CaCl2, 1-2 μM CaM, and 30-60 μM AC2 peptide (or syntide2). The reactions were spotted onto Whatman P81 phosphocellulose paper rectangles (˜2×2.5 cm). To remove free radioactivity, the paper rectangles were rinsed and washed for 30 min under agitation in 0.5% phosphoric acid or water. […] Radioactivity of the bound peptides was quantified in a Beckman 6000TA scintillation counter by the Cherenkov method. Any changes of the standard protocol were done as indicated. For assays of the GFP-CaMKIIα mutants, kinase amounts were normalized by GFP fluorescence in the extract, and total protein was adjusted with Cos-7 extracts.

CaMKI = CaMKI (Homo sapiens, UniProt Q14012); assay: CaMKI activity / inhibition; type: biochemical
From the text: For curve fit, the Hill coefficient was set as 1.

CaMKII [2] = molecular target: T1, CaMKII (Homo sapiens, UniProt Q9UQM7); assay: CaMKII phosphorylation of crude liver extracts or GST-NR2B-c (autoradiography); type: biochemical; conditions: 5 μM
T1 construct: made in house; host or cells: baculovirus/Sf9 cells
Method: Crude liver extracts or NR2B-c were phosphorylated with 100 nM autophosphorylated CaMKII, 2 μM CaM and 40 μM [γ-^32P]-ATP (˜2 Ci/mmole). Pre-auto-phosphorylation (of 300 nM CaMKII) was done for 5 min on ice, in presence of 3 mM CaCl2, 6 μM CaM and 120 μM unlabelled ATP. After addition of [γ-^32P]-ATP and inhibitors as indicated, 2 min reactions at 30° C. were started by addition of substrate protein extract (⅓^rd to 1/12th of total reaction volume), and stopped with 25 mM EDTA. Phosphorylation was detected by autoradiography after gel electrophoresis.

[3] = test system: other kinases of the panel (CaMKIV, PKA, PKCα, JNK1α1, MAPK1, raf); type: biochemical; conditions: 5 μM peptide
Method: Kinase panels. A panel of different kinases was tested utilizing a kinase profiling service (Upstate Biotechnology). 40 min reactions at room temperature contained 0.1% BSA and were started by addition of 10 mM MgAcetate and [γ-^33P-ATP], stopped by 0.1% phosphoryic acid, spotted on filter mats, and washed 3×5 min in 75 mM phosphoric acid and 1× in methanol prior to drying and scintillation counting. CaMKII and IV were activated by 5 mM CaCl2 and 1.7 μM CaM in 40 mM Hepes pH 7.4; substrate was 30 μM […] (SEQ ID NO:22). Buffers and substrates for the other kinases are stated in brackets: PKA (8 mM MOPS pH 7, 0.2 mM EDTA; 30 μM Kemptide), PKCα (20 mM Hepes pH 7.2, 0.3% Triton X-100, 0.1 mg/ml phosphatidylserine, 10 μg/ml diacylglycerol; 0.1 mg/ml histone H1), JNK1α1 (50 mM Tris pH 7.5, 0.1 mM EGTA, 0.1% β-mercapto-ethanol; 3 μM ATF), MAPK1 and raf (25 mM Tris, pH 7.5, 0.02 mM EGTA; 250 μM proprietary substrate and 0.66 mg/ml myelin basic protein, respectively). Reactions in presence of 5 μM CN21a were done in duplicate, and normalized to four parallel reactions without inhibitor.

[4] = molecular target: T2, CaM dissociation from CaMKII (Homo sapiens, UniProt Q9UQM7); assay: TA-CaM dissociation from CaMKII; type: binding; conditions: 5 μM; 150 nM CaMKII, 30 nM TA-CaM
T2 construct: made in house; host or cells: baculovirus/Sf9 cells (CaMKII)
Method: TA-CaM dissociation was assessed by increased TA-CaM (30 nM) fluorescence after dissociation from CaMKII or its CaM-binding domain (CBD) (150 nM) during a chase with unlabeled CaM (60 μM). Buffer contained 50 mM Hepes pH 7.4, 150 mM KCl, 2 mM MgCl2, 2 mM MgADP, 2 mM CaCl2, and 0.1 mg/ml BSA. Fluorescence was measured in a time scan (1 sec samples) at 365 nm excitation and 415 nm emission wavelength on a spectro-fluorometer (Fluorolog3; Horiba Jobin Yvon) and was corrected for photobleach (FIG. 16).

CaMKII [5] = molecular target: T1, CaMKII; assay: CaMKII auto- and protein-phosphorylation (MAP2, T286, T305; immuno-blot); type: biochemical; conditions: for CaMKII T305 auto-phosphorylation: CN21 5 μM; for CaMKII T305 auto-phosphorylation / CaMKII T286 auto-phosphorylation: KN93 10 μM; for CaMKII T286 auto-phosphorylation: CN peptides 1-5 μM
Method: CaMKII auto- and protein-phosphorylation. 10 nM MAP2 (˜140 nM phosphorylation sites) was used instead of substrate peptide, and reaction times were 5 min, unless indicated otherwise. CaMKII concentration was 100 nM subunits (=8.3 nM holoenzymes). Auto- and MAP2-phosphorylation were assessed by Immuno-blot analysis previously derived (Bayer et al., 2002, incorporated herein by reference) with phospho-T286- or -T305-specific antibodies (1:500; PhosphoSolutions) and an anti-phospho-Thr antibody (1:500; Zymed), respectively. Total CaMKIIα was detected with CBα2 antibody (1:2000; GIBCO). Protein were separated on 10% poly-acrylamid SDS Gels, and electro-blotted onto “Protran” 0.2 μm pore nitrocelluse filters (e.g. Schleicher & Schull) or onto PVDF filters (e.g. Perkin Elmer). Alternatively, for quantitative analyses, a vacuum-driven slot-blot manifold (e.g. Schleicher & Schull) was used for transfer onto PVDF membranes. PVDF membranes were air-dried for 15 min, then wetted in Methanol. Blots were blocked in 5% milk in TBS-T (Tris-buffered saline pH 7.6 with 0.1% Tween-20). Antibodies were incubated for 45-60 min at room temperature in 2.5% milk in TBS-T; for the anti-phospho-T305 antibody, 2.5% BSA was used instead. After secondary antibody incubation (anti-mouse or anti-rabbit horseradish peroxidase conjugate; Amersham; 1:4000), detection was done using the “Western Lightning” system (Perkin Elmer) and exposure to “Hyperfilm” (Amersham). For quantitative analysis, chemoluminescence was captured using a ChemiImager 4400 imaging system (Alpha Innotek) instead of film. Only non-saturated images were analyzed, using AlphaEase software.

CaMKII [6] = type: biochemical
Method: as §1

[7] = molecular target: T3, CaMKII binding to GST-NR2B-c (Homo sapiens, UniProt Q9UQM7); assay: Ca2+/CaM-induced CaMKII binding to immobilized GST-NR2B-c; conditions: Western blot of eluted CaMKII
T3 construct: made in house; host or cells: CaMKII: baculovirus/Sf9; GST-NR2B-c and CaM: bacteria
Method: CaMKII binding to NR2B-c was assessed as previously described. Briefly, GST-NR2B-c was immobilized on anti-GST coated microtiter plates, then overlaid with 100 nM CaMKII in presence of Ca^2+/CaM and 1 or 5 μM of various CN peptides. After extensive wash, protein was eluted from the plates by boiling in SDS-loading buffer. Eluted CaMKII was detected by Western-blot as described above.

CaMKII [8] = assay: Kinase panel (kinase profiling service): CaMKII; type: biochemical
hippocampal neurons = assay: Imaging of neuronal filopodia motility; type: cell-based, rat; conditions: 20 min incubation
Method: In another example, motility of hippocampal neurons was analyzed. […] Images of GFP expressing hippocampal neurons (5-6 days in vitro) were acquired at 30° C. in 20 s intervals in order to assess motility.
Imaging of neuronal filopodia motility was done similarly as previously described. Hippocampal cultures were prepared from newborn Sprague Dawley rats (Harlan) as previously described, plated onto poly-D-lysine coated glass bottom dishes (MatTek) at a density of ˜2.5×10^6 cells/cm^2 and maintained in Neurobasal A medium with penicillin/streptomycin (50 units/ml), glutamax (2 mM) and B27 supplement (Invitrogen). […] After 5 days in vitro, neurons were transfected with a GFP expression construct (Clonetech) using lipofectamine 2000 (Invitrogen), as described. On the next day neurons were imaged in culture medium on for example, a Zeiss Axiovert 200M systems equipped with a 40× oil immersion objective, Cool Snap HQ CCD camera (Roeper Scientific), Xenon lamp LB-LS/17 (Sutter Instruments) and climate control set to 30° C. and 5% CO2. Fluorescence Images were acquired and analyzed using SlideBook software (Intelligent Imaging Innovations). 16 images were taken in 20 s time intervals, at 100 ms exposure time and bin factor 2. Subtraction image (Δ image) stacks were generated by subtracting one stack (first image deleted) from its duplicate (last image deleted). […]

calmodulin (CaM) = calmodulin (CaM) (Homo sapiens, UniProt P0DP23); assay: Binding to calmodulin (slot blot, blot overlay, TA-CaM competition with CBD)
Method: TA-labeled CaM represents reduced fluorescence after binding to CaMKII or its CaM binding domain (CBD; −0.05 nM kD for CaM^5; see also FIG. 9G).
Measured was AC2 phosphorylation as described^4. Error bars show s.e.m.

Langerhans' islets = assay: Glucose-induced insulin secretion from isolated Langerhans' islets; type: cell-based, rat; conditions: 11 mM glucose; EGTA 0.5 mM, KN93 10 μM, antCN27 5 μM, tatCN21 5 μM
Method: Insulin secretion. Langerhans' islets acutely isolated from adult male Wistar rats (Harlan) were obtained. […] Inhibitors or EGTA were added 30 min before stimulation. Insulin secreted into the medium during 90 min stimulation was measured using an ELISA kit (CrystalChem).

CaMKII [9] = molecular target: T1, CaMKII; assay: Autonomous CaMKII activity (pre-autophosphorylated CaMKII); type: biochemical
Method: (§2) Stimulated CaMKII activity was assessed using purified CaMKII, [γ^32P]ATP, and the CaMKII substrate, syntide2. Reaction was initiated by addition of calcium and calmodulin. To measure autonomous activity, CaMKII was pre-autophosphorylated by incubation with calcium and calmodulin, which was then chelated by addition of EDTA prior to adding the kinase to syntide2 and [γ^32P]ATP. […] To measure self-association, purified CaMKII was incubated for five minutes with 1mM ADP, calcium and calmodulin, and the appropriate inhibitor. The reaction mixture was then centrifuged to pellet the self-associated kinase. The supernatant (S) was removed and saved and the pellet (P) was resuspended. Both were then resolved by SDS-PAGE and western-blotted for CaMKII. Self-associated kinase is found in the pellet.

CaMKII [10] = molecular target: T1, CaMKII; assay: CaMKII self-association in vitro; type: biochemical
Method: as §2

[11] = test system: hippocampal and cortical cultures; assay: Glutamate induced neuronal cell death measured by LDH release; type: cell-based, rat
Method: In another example, neuronal cell death is measured by LDH release. In this exemplary method, glutamate was used to induce neuronal cell death, A portion of CaMKIIN was fused to a cell penetrating molecule to generate tatCN21a construct.

[12] = test system: 10DIV hippocampal neurons; assay: NMDA induced cell death; type: cell-based; conditions: NMDA plus CNQX 5 minutes, assayed 24 hours after insult
Method: Neurons were co-transfected with siRNA or non-targeting RNA (NT) at 8DIV and were assayed at day 10. […] Cells were treated with 300 mM NMDA plus 50 mM CNQX (an AMPAR inhibitor) for 5 minutes and cell death was assayed 24 hours after insult. […] Increased AMPAR expression is thought to lead to increased cell death. Thus, by inducing cell death with NMDA and an AMPAR inhibitor, the AMPAR component was reduced.

CaMKI, sequence (Q14012 whole entry, species assumed): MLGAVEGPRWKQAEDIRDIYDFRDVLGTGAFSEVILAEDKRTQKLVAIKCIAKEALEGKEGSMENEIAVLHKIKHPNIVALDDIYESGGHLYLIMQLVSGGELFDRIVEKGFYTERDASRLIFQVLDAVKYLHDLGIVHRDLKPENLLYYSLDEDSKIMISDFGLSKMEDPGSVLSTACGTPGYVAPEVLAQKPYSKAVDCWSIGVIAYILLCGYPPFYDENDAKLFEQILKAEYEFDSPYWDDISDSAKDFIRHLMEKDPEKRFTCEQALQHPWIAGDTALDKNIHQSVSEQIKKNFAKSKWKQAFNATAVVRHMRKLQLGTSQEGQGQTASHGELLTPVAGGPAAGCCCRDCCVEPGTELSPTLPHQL

Substance: KRPPKLGQIGRSKRVVIEDDR [CN21]
- activity of CaMKII T-site mutants W237R and 1205K compared to GFP-CaMKIIα wild type [1]: significantly less affected
- effect on CaMKI activity (CaMKI): no significant effect
- CaMKII phosphorylation of bacterially expressed GST-NR2B-c (CaMKII [2]): blocks CaMKII phosphorylation
- CaMKII phosphorylation of crude liver protein extracts (CaMKII [2]): blocks CaMKII phosphorylation
- activity of the other kinases of the panel [3]: not affected
- CaM dissociation from CaMKII [4]: slowed down CaM dissociation from CaMKII
- CaMKII T305 auto-phosphorylation (CaMKII [5]): blocked T305
- CaMKII T305 auto-phosphorylation (CaMKII [5]; listed as CN21a): blocks
- CaMKII T286 auto-phosphorylation (CaMKII [5]): no significant effect
- CaMKII T286 auto-phosphorylation (CaMKII [5]; listed as CN21a): not T286 autophosphorylation
- inhibition of CaMKII isoforms α and β (CaMKII [6]): inhibit both major brain CaMKII isoforms, α and β
- inhibitory potency on CaMKII activity (CaMKII [6]; CN truncation peptides, substrate peptides AC2 or syntide 2, listed as CN21a): contains the full inhibitory potency; also recorded: full inhibitory effect
- pIC50 (CaMKII [6]; phosphorylation of syntide 2, read-out: IC50 of CaMKII inhibition): ~7.00
- mechanism of CaMKII inhibition (CaMKII [6]; versus substrate AC2, Lineweaver-Burk plot): competitive with AC2
- CaMKII binding to immobilized GST-NR2B-c / NR2B [7]: efficiently blocked
- CaMKII activity in kinase panel (CaMKII [8]; 5 μM peptide): completely blocked

Substance: tatCN21: CN21 fused to the cell penetrating tat sequence (YGRKKRRQRRRKRPPKLGQIGRSKRVVIEDDR)
- motility in hippocampal neurons (hippocampal neurons): inhibits motility in hippocampal neurons
- competition with CBD for binding of TA-labeled CaM (calmodulin (CaM)): did not show any competition and not
- effect on CaMKI activity (CaMKI): dramatically reduces CaMKI activity
- MAP2 (substrate) phosphorylation by CaMKII (CaMKII [5]; 1-5 μM peptide): blocked MAP2
- CaMKII T286 auto-phosphorylation (CaMKII [5]): not T286 phosphorylation
- glucose-induced insulin secretion (Langerhans' islets): inhibited
- CaMKII-mediated AC2/AC3 phosphorylation at varying CaM concentrations (CaMKII [6]; 1 μM peptide): strongly inhibited
- calcium and calmodulin stimulated CaMKII activity (CaMKII [6]; substrate syntide2): inhibit calcium and calmodulin stimulated CaMKII activity
- autonomous CaMKII activity (CaMKII [9]): inhibits autonomy; also recorded: blocks not only stimulated but also autonomous CaMKII activity
- CaMKII self-association in vitro (CaMKII [10]): inhibited
- glutamate induced cell death ([11]; 7DIV cortical, added 1-6 hours post insult): inhibits glutamate induced cell death
- glutamate induced neuronal cell death ([11]; added 1 h after the insult): protective also when added 1 h after the insult
- glutamate induced neuronal cell death ([11]; added 1 h after the insult, listed as tatCN21a): also when added 1h after the insult
- glutamate induced neuronal cell death ([11]; present during the insult): reduce by half
- glutamate induced neuronal cell death ([11]; present during the insult, listed as tatCN21a): inhibited glutamate induced neuronal cell death
- NMDA induced cell death [12]: reduces NMDA-induced cell death
- CaMKII binding to immobilized GST-NR2B-c / NR2B [7]: efficiently blocked
- CaMKII binding to immobilized GST-NR2B-c / NR2B ([7]; listed as TatCN21): inhibited binding
- CaMKII activity in kinase panel (CaMKII [8]; 1 μM peptide): completely blocked CaMKII activity
- CaMKII activity in kinase panel (CaMKII [8]; 5 μM peptide): blocked CaMKII activity
